Converted amounts (≈) assume the structure as drawn.
Assays:
[1] = Oral bioavailability in rat at 5 mg/kg; type: ADME, organism-based; details: in vivo
[2] = Cmax in rat at 5 mg/kg, po; type: ADME, organism-based; design: dose 5 mg/kg, route oral; details: in vivo
Rattus norvegicus = assay: Clearance in rat at 2 mg/kg, iv; type: ADME, organism-based; design: dose 2 mg/kg, route intravenous; details: in vivo
[3] = Octanol-phosphate buffer partition coefficient, log D of the compound at pH 7.4; type: physicochemical
[4] = Aqueous solubility of the compound in phosphate buffer at pH 6.8 after 24 hrs; type: physicochemical
[5] = Aqueous solubility of the compound in phosphate buffer at pH 2 after 24 hrs; type: physicochemical

Row | SMILES | bioavailability [1] [%] | Cmax [2] [nM] | CL (Rattus norvegicus) [%] | logD [3] | solubility at 24 h [4] [µg/mL] | solubility at 24 h [5] [µg/mL]
1 | CNc1ccc(-c2nc(=O)n(CC[C@@H]3CCCO3)c3c2oc2ncc(-c4cnn(C)c4)cc23)cn1 | 36 | 140 | 37 | – | – | –
2 | CNc1ccc(-c2nc(=O)n(CCC3CC(C)(C)CO3)c3c2oc2ncc(-c4cnn(C)c4)cc23)cn1 (stereo not drawn) | – | – | – | 3.4 | – | –
3 | Cn1cc(-c2cnc3oc4c(-c5cscn5)nc(=O)n(CCC5CCCO5)c4c3c2)cn1 (stereo not drawn) | – | – | – | 1.5 | – | –
4 | Cn1cc(-c2cnc3oc4c(-c5ccn(C)n5)nc(=O)n(CCC5CCCO5)c4c3c2)cn1 (stereo not drawn) | – | – | – | 0.9 | – | –
5 | Cn1cc(-c2cnc3oc4c(-c5cn(C)nn5)nc(=O)n(CCC5CCCO5)c4c3c2)cn1 (stereo not drawn) | – | – | – | 1.5 | – | –
6 | Cn1cc(-c2cnc3oc4c(-c5cnn(C)c5)nc(=O)n(CCC5CCCO5)c4c3c2)cn1 (stereo not drawn) | – | – | – | 1.5 | – | –
7 | CCn1cc(-c2nc(=O)n(CCC3CCCO3)c3c2oc2ncc(-c4cnn(C)c4)cc23)cn1 (stereo not drawn) | – | – | – | 2.2 | – | –
8 | COc1cncc(-c2nc(=O)n(CCC3CCCO3)c3c2oc2ncc(-c4cnn(C)c4)cc23)c1 (stereo not drawn) | – | – | – | 2.5 | – | –
9 | COc1ccc(-c2nc(=O)n(CCC3CCCO3)c3c2oc2ncc(-c4cnn(C)c4)cc23)cc1 (stereo not drawn) | – | – | – | 3.5 | – | –
10 | COc1ccc(-c2nc(=O)n(CCC3CCCO3)c3c2oc2ncc(-c4cnn(C)c4)cc23)cn1 (stereo not drawn) | – | – | – | 2.8 | – | –
11 | CN(C)c1cnc(-c2nc(=O)n(CCC3CCCO3)c3c2oc2ncc(-c4cnn(C)c4)cc23)cn1 (stereo not drawn) | – | – | – | 2 | – | –
12 | CNc1ccc(-c2nc(=O)n(CCC3CCCO3)c3c2oc2ncc(-c4cnn(C)c4)cc23)nc1 (stereo not drawn) | – | – | – | 1.9 | – | –
13 | Cn1cc(-c2cnc3oc4c(-c5cccnc5)nc(=O)n(CCC5CCCO5)c4c3c2)cn1 (stereo not drawn) | – | – | – | 1.7 | – | –
14 | Cn1cc(-c2cnc3oc4c(-c5ccncc5)nc(=O)n(CCC5CCCO5)c4c3c2)cn1 (stereo not drawn) | – | – | – | 1.8 | – | –
15 | COc1cc(-c2nc(=O)n(CCC3CCCO3)c3c2oc2ncc(-c4cnn(C)c4)cc23)ccn1 (stereo not drawn) | – | – | – | 2.8 | – | –
16 | CNc1ccc(-c2nc(=O)n(CCC3CCCCO3)c3c2oc2ncc(-c4cnn(C)c4)cc23)cn1 (stereo not drawn) | – | – | – | 3.2 | – | –
17 | CNc1ccc(-c2nc(=O)n(CCC3CCOCC3)c3c2oc2ncc(-c4cnn(C)c4)cc23)cn1 | – | – | – | 2.5 | – | –

Row | SMILES | bioavailability [1] [%] | Cmax [2] [nM] | CL (Rattus norvegicus) [%] | logD [3] | solubility at 24 h [4] [µg/mL] | solubility at 24 h [5] [µg/mL]
18 | CNc1ccc(-c2nc(=O)n(C(C)CC3CCCO3)c3c2oc2ncc(-c4cnn(C)c4)cc23)cn1 (stereo not drawn) | – | – | – | 3.3 | – | –
19 | CNc1ccc(-c2nc(=O)n(CCC3CCC(C)O3)c3c2oc2ncc(-c4cnn(C)c4)cc23)cn1 (stereo not drawn) | – | – | – | 3.2 | – | –
20 | CCC1(OC)CC(n2c(=O)nc(-c3ccc(NC)nc3)c3oc4ncc(-c5cnn(C)c5)cc4c32)C1 (stereo not drawn) | – | – | – | 2.9 | – | –
21 | CC[C@H]1C[C@H](n2c(=O)nc(-c3ccc(NC)nc3)c3oc4ncc(-c5cnn(C)c5)cc4c32)CCO1 (racemic) | – | – | – | 2.6 | – | –
22 | CC[C@H]1C[C@@H](n2c(=O)nc(-c3ccc(NC)nc3)c3oc4ncc(-c5cnn(C)c5)cc4c32)CCO1 (racemic) | 34 | 1100 | 19 | 2.9 | – | –
23 | CNc1ccc(-c2nc(=O)n(CCC3CCCO3)c3c2oc2ncc(-c4cnn(C)c4)cc23)cn1 (racemic) | – | – | – | 2.7 | – | –
24 | CC[C@H]1C[C@@H](n2c(=O)nc(-c3cnn(C)c3)c3oc4ncc(-c5cn(C)cn5)cc4c32)CCO1 (relative stereo) | – | – | – | 1.8 | 2.8 (≈ 6.09 µM) | > 1000
25 | CC[C@H]1C[C@@H](n2c(=O)nc(-c3cnn(C)c3)c3oc4cnc(-c5cn(C)cn5)cc4c32)CCO1 (relative stereo) | – | – | – | 2.6 | 5.3 (≈ 11.5 µM) | 420 (≈ 914 µM)
26 | CC[C@H]1C[C@@H](n2c(=O)nc(-c3cnn(C)c3)c3oc4ccc(-c5cn(C)cn5)nc4c32)CCO1 (relative stereo) | 69 | 3100 | 9.4 | 2.7 | 0.6 (≈ 1.31 µM) | > 480
27 | CC[C@H]1C[C@@H](n2c(=O)nc(-c3cnn(C)c3)c3oc4cnc(-c5cnn(C)c5)cc4c32)CCO1 (relative stereo) | 88 | 1600 | 18 | 2.2 | < 0.1 | < 0.1
28 | CC[C@H]1C[C@@H](n2c(=O)nc(-c3cnn(C)c3)c3oc4ccc(-c5cnn(C)c5)nc4c32)CCO1 (relative stereo) | 35 | 460 | 18 | 3 | 0.2 (≈ 0.435 µM) | 0.2 (≈ 0.435 µM)
29 | CC[C@H]1C[C@@H](n2c(=O)nc(-c3cnn(C)c3)c3oc4cc(C#N)c(-c5cnn(C)c5)cc4c32)CCO1 (relative stereo) | – | – | – | 2.5 | 0.2 (≈ 0.414 µM) | 0.2 (≈ 0.414 µM)
30 | CC[C@H]1C[C@@H](n2c(=O)nc(-c3cnn(C)c3)c3oc4cc(C#N)c(-c5cnn(C)c5)nc4c32)CCO1 (relative stereo) | 94 | 8900 | 4.6 | 2.7 | 2.1 (≈ 4.33 µM) | 7.9 (≈ 16.3 µM)
31 | CC[C@H]1C[C@@H](n2c(=O)nc(-c3cnn(C)c3)c3oc4ccc(-c5cnn(C)c5)cc4c32)CCO1 (relative stereo) | – | – | – | 3 | < 0.1 | < 0.1
32 | CC[C@H]1C[C@@H](n2c(=O)nc(-c3cnn(C)c3)c3oc4ccc(-c5cncn5C)cc4c32)CCO1 (relative stereo) | – | – | – | 2.3 | 106 (≈ 231 µM) | > 920
33 | CC[C@H]1C[C@@H](n2c(=O)nc(-c3cnn(C)c3)c3oc4ccc(-c5cn(C)cn5)cc4c32)CCO1 (relative stereo) | 51 | 1200 | 13 | 2.6 | 5 (≈ 10.9 µM) | > 1000

Reference: ChEMBL document CHEMBL2396591, “Identification of potent and orally bioavailable nucleotide competing reverse transcriptase inhibitors: in vitro and in vivo optimization of a series of benzofurano[3,2-d]pyrimidin-2-one derived inhibitors” (Bioorg Med Chem Lett, 2013)
